Reference: ChEMBL document CHEMBL4665650, “Towards a TREK-1/2 (TWIK-Related K+ Channel 1 and 2) dual activator tool compound: Multi-dimensional optimization of BL-1249” (Bioorg Med Chem Lett, 2019)

Legend:
[1] = target: T1, Potassium channel subfamily K member 10 (Homo sapiens) (UniProt P57789); test: Activation of human TREK2 at 30 uM by thallium flux mobilization assay relative to control
T1 sequence (whole entry): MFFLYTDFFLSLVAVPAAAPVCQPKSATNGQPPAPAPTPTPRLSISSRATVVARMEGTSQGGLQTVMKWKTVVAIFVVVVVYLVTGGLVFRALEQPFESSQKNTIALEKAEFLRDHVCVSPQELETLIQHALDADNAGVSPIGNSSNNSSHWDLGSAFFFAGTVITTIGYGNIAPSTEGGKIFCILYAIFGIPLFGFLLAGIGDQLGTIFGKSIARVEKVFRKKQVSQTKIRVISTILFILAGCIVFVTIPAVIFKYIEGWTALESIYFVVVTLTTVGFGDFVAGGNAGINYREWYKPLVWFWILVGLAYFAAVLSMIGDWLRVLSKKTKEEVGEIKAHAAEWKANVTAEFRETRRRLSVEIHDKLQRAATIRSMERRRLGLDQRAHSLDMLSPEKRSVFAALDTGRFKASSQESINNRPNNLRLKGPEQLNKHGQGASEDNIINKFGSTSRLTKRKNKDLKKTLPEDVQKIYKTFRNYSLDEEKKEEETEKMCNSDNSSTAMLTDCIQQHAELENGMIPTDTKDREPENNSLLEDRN

[2] = target: T2, Potassium channel subfamily K member 2 (Homo sapiens) (UniProt O95069); test: Activation of human TREK1 at 30 uM by thallium flux mobilization assay relative to control
T2 sequence (whole entry): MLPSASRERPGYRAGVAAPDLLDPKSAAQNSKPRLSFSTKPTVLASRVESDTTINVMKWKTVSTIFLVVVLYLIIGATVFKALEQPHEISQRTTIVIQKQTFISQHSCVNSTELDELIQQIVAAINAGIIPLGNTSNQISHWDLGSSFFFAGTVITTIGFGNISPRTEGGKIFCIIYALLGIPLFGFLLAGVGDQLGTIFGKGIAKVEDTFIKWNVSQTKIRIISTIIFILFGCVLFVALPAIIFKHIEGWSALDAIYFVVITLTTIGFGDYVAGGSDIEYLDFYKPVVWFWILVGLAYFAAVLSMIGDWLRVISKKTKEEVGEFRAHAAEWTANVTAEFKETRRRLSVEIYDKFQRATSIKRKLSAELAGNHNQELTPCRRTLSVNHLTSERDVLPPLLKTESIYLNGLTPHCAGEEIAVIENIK

[3] = target: T3, Potassium channel subfamily K member 10 (Homo sapiens, UniProt P57789); test: Activation of human TREK2 by thallium flux mobilization assay
T3 sequence (P57789 whole entry): T1 sequence (whole entry)

[4] = target: T4, Potassium channel subfamily K member 2 (Homo sapiens, UniProt O95069); test: Activation of human TREK1 by thallium flux mobilization assay
T4 sequence (O95069 whole entry): T2 sequence (whole entry)

[5] = target: T1, Potassium channel subfamily K member 10 (Homo sapiens); test: Activation of human TREK2 at 10 uM by thallium flux mobilization assay relative to control
[6] = target: T2, Potassium channel subfamily K member 2 (Homo sapiens); test: Activation of human TREK1 at 10 uM by thallium flux mobilization assay relative to control
[7] = Fraction unbound in mouse plasma; assay type: ADME, cell-free
[8] = Fraction unbound in human plasma; assay type: ADME, cell-free
[9] = Fraction unbound in rat plasma; assay type: ADME, cell-free

| Structure (SMILES) | Activity [1] [%] | Activity [2] [%] | EC50 [3] [µM] | EC50 [4] [µM] | Activity ([2]; filed as activator) [%] | other results |
| --- | --- | --- | --- | --- | --- | --- |
| O=C(O)c1cccc(NC(=O)c2cccc(C(F)(F)F)c2)c1 | -3 | -10 |  |  |  |  |
| O=C(O)c1cccc(NC(=O)c2ccccc2C(F)(F)F)c1 | -1 | -14 |  |  |  |  |
| O=C(O)Cc1cccc(NC(=O)c2cccc(C(F)(F)F)c2)c1 | 1 | -1 |  |  |  |  |
| O=C(O)c1cccc(NC(=O)c2ccc(C(F)(F)F)cc2)c1 | 0 | -11 |  |  |  |  |
| O=C(Nc1ccc([N+](=O)[O-])cc1C(=O)O)c1ccc(SC(F)(F)F)cc1 |  |  | 26.5 | 13.7 | 56 | Activity ([1]; filed as activator): 65% |
| O=C(Nc1ccccc1C(=O)O)c1cccc(SC(F)(F)F)c1 | 17 | 40 |  |  |  |  |
| O=C(Nc1cccc2c1CCCC2)c1ccccc1-c1nnn[nH]1 |  |  |  |  |  | Activity [5]: 1%; Activity [6]: 0% |
| O=C(Nc1ccc2c(c1)CCCC2)c1ccccc1-c1nnn[nH]1 |  |  |  |  |  | Activity [5]: 1%; Activity [6]: 0% |
| O=C(Nc1cnncc1C(=O)O)c1ccc(SC(F)(F)F)cc1 | 1 | 1 |  |  |  |  |
| Cc1sc(NC(=O)c2ccc(SC(F)(F)F)cc2)c(C(=O)O)c1C | 12 | 31 | < 3.6 | < 3.1 |  |  |
| O=C(Nc1ncncc1C(=O)O)c1ccc(SC(F)(F)F)cc1 | 0 | -4 |  |  |  |  |
| O=C(O)Cc1ccccc1NC(=O)c1ccc(C(F)(F)F)cc1 | 0 | -6 |  |  |  |  |
| O=C(Nc1ccc(F)cc1C(=O)O)c1ccc(SC(F)(F)F)cc1 |  |  | > 30 | 9.5 | 54 | Activity ([1]; filed as activator): 43% |
| O=C(O)Cc1cccc(NC(=O)c2ccc(C(F)(F)F)cc2)c1 | -1 | 0 |  |  |  |  |
| O=C(Nc1nccnc1C(=O)O)c1ccc(SC(F)(F)F)cc1 | 0 | -6 |  |  |  |  |
| O=C(Nc1ncccc1C(=O)O)c1ccc(SC(F)(F)F)cc1 | 1 | -4 |  |  |  |  |
| O=C(Nc1sccc1C(=O)O)c1ccc(SC(F)(F)F)cc1 | 28 |  | > 30 | > 30 | 58 |  |
| O=C(Nc1sc(-c2ccccc2)cc1C(=O)O)c1ccc(SC(F)(F)F)cc1 |  |  | > 30 | 22.4 | 83 | Activity ([1]; filed as activator): 49% |

| Structure (SMILES) | Activity [1] [%] | Activity [2] [%] | EC50 [3] [µM] | EC50 [4] [µM] | Activity ([2]; filed as activator) [%] | other results |
| --- | --- | --- | --- | --- | --- | --- |
| O=C(Nc1ccccc1C(=O)O)c1cccc(C(F)(F)F)c1 | 12 | 28 |  |  |  |  |
| O=C(Nc1ccccc1C(=O)O)c1ccc(C(F)(F)F)cc1 | 12 | 28 |  |  |  |  |
| COc1ccc(C(=O)O)c(NC(=O)c2ccc(SC(F)(F)F)cc2)c1 | 27 |  | 28.5 | 16.5 | 52 |  |
| O=C(O)Cc1cccc(NC(=O)c2ccccc2C(F)(F)F)c1 | 0 | 2 |  |  |  |  |
| O=C(Nc1ccccc1-c1nnn[nH]1)c1cccc2c1CCCC2 |  |  |  |  |  | Activity [5]: 2%; Activity [6]: 6% |
| O=C(Nc1ccc(OC(F)(F)F)cc1C(=O)O)c1ccc(SC(F)(F)F)cc1 |  |  | 5.6 | 4.6 | 57 | Activity ([1]; filed as activator): 60% |
| O=C(Nc1ccccc1C(=O)O)c1ccc(SC(F)(F)F)cc1 | 17 |  | 5 | 12.8 | 50 | fraction unbound [7]: 0.081; fraction unbound [8]: 0.026; fraction unbound [9]: 0.04 |
| O=C(Nc1ccccc1-c1nnn[nH]1)c1ccc2c(c1)CCCC2 |  |  |  | 13.1 |  | Activity [5]: 21%; Activity [6]: 24% |
| O=C(Nc1ccoc1C(=O)O)c1ccc(SC(F)(F)F)cc1 | 5 | 8 |  |  |  |  |
| O=C(Nc1ccc(Cl)cc1C(=O)O)c1ccc(SC(F)(F)F)cc1 |  |  | 6.8 | 3.8 | 69 | Activity ([1]; filed as activator): 76% |
| COc1ccc(NC(=O)c2ccc(SC(F)(F)F)cc2)c(C(=O)O)c1 | 31 |  | > 30 | 20.2 | 50 |  |
| O=C(O)Cc1ccccc1NC(=O)c1cccc(C(F)(F)F)c1 | 2 | 5 |  |  |  |  |
| O=C(O)Cc1ccccc1NC(=O)c1ccccc1C(F)(F)F | -1 | 4 |  |  |  |  |
| O=C(Nc1cc(Br)ccc1C(=O)O)c1ccc(SC(F)(F)F)cc1 |  |  | 5.9 | 4.3 | 76 | Activity ([1]; filed as activator): 74% |
| O=C(Nc1ccc(Br)cc1C(=O)O)c1ccc(SC(F)(F)F)cc1 |  |  | 7.7 | 5.9 | 114 | Activity ([1]; filed as activator): 101%; fraction unbound [7]: 0.029; fraction unbound [8]: 0.003; fraction unbound [9]: 0.013 |
| O=C(O)c1ccccc1NC(=O)c1ccccc1C(F)(F)F | -3 | 1 |  |  |  |  |
| O=C(Nc1cc(Cl)ccc1C(=O)O)c1ccc(SC(F)(F)F)cc1 |  |  | 7.5 | 4.4 | 66 | Activity ([1]; filed as activator): 73% |
